Columns and labels:
HOC = assay: Oxidation stress (ROS), Muse Oxidative Stress Kit; format: cell-based, human; conditions: 1 µM (DMSO 5% V/V), 24 h
Description: Selenoesters (K3, K4, K7) were tested for their ability to generate reactive oxygen species (ROS). HOC was exposed to selenoesters in concentration of 1 µM for 24 h. DMSO (5% V/V) was used as a positive control. The required volume of DMSO (1% V/V) was added to untreated cells. ROS are essential biomolecules in cellular regulation as a part of the defence mechanisms. On the other hand, their participation in cell signalling may affect apoptosis and other death pathways. In the assay, dihydroethidium (DHE) reacts with superoxide anions by forming DNA-binding fluorophore ethidium bromide. Based on fluorescence, the cell population can be distinguished into ROS negative and ROS positive cells containing oxygen radicals.
To determine the oxidation stress potential of selected selenoesters, HOC were seeded into 24-well plates at a density 2 × 10^5 cells/mL for 24 h according to the above mentioned procedure. Afterwards, the plates were washed 1 ×with PBS and fresh DMEM medium containing compounds K3, K4, K7 (final concentration—1 µM) was added for 24 h, except for the positive and negative control. […] as the oxidation stress inductor. After incubation, the cells were washed 1× with PBS and released from the surface by using a trypsin–EDTA solution. After trypsin inhibition by medium addition, the cell suspensions were centrifuged (100×g, 5 min, 25 °C), supernatants were removed, and cell pellets resuspended in 1× assay buffer. All reagents were prepared immediately before use. Afterwards, 10 µL of the cell suspension were mixed with 190 µL of working solution (Muse Oxidative stress reagent) and stained for 30 min at 37 °C. Subsequently, the […] were analysed by Guava Muse Cell Analyzer. Oxidation stress detection was performed following the instructions provided by the manufacturer.

MCF-7 spheroids = assay: 3D spheroid formation; format: cell-based, human; conditions: 1 µM, whole treatment (24–72 h)
Description: (§1) To monitor the effect of selenoesters on spheroid formation, HOC, HOC/ADR, MCF-7 and MCF-7/PAX cell lines were used. 24 h after HOC cells’ inoculation, the diameter of formed spheroids was measured. The spheroids with diameters above 200 µm are characterized by the presence of a concentration gradient of oxygen, nutrients, and metabolites. The ovarian cancer cells (HOC, HOC/ADR) formed aggregates in which single cells could be recognized (Figs. 3, 4). In contrast, breast cancer cell lines (MCF-7, MCF-7/PAX) (Figs. 5, 6) formed compact spheroids where individual cells could not be distinguished because of close cell–cell interactions. According to this fact, the easier penetration and action of compounds into spheroids of ovarian cancer cells is expected. Upon selenoesters’ addition, the images of spheroids were taken regularly to determine their areas relative to the control spheroids in medium containing the solvent (1% V/V DMSO).
(§2) Human ovarian and breast cancer cells (parental and resistant) were seeded into U bottom 96-well plates (VWR, Radnor, Pennsylvania, United States) coated with 0.8% SeaKem LE Agarose at a cell density 0.5 × 10^5 cells/mL (HOC, HOC/ADR) and 1 × 10^5 cell/mL (MCF-7, MCF-7/PAX) in 100 µL of medium with appropriate cytostatic agent. After 24 h, the plates were enriched with 100 µL of medium with tested compounds K3, K4, K7 at the final concentration of 1 µM, except for control cells (100 µL medium with 1% V/V DMSO). Spheroids were recorded 0; 24; 48 and 72 h after exposure to tested compounds by using the light microscope Axio Vert. A1 (Zeiss, Jena, Germany) with photo documentation equipment, Axiocam ICC 1 and Axio Vision 4.8 software (Zeiss), and the spheroid areas were determined by using ImageJ (National Institute of Health, Bethesda, Maryland, United States). Subsequently, a spheroid growth was calculated according to equation: Spheroid area%=SAS at t/SAC at t×100 where SAS represents the area of spheroids treated with the compound; SAC is the control spheroid area; and the exposure time (t = 0; 24; 48; 72 h).

HOC/ADR spheroids = assay: 3D spheroid formation; format: cell-based, human; conditions: 1 µM
Description: as §1, §2

HOC/ADR = assay: Sensitization of MDR cell line to Adriamycin; format: cell-based, human; conditions: IC50 of Adriamycin / IC50 of Adriamycin with IC10 dose of compound
Description: To determine the sensitization potential of compounds, HOC/ADR and MCF-7/PAX were used. Based on the cytotoxic potential of the compounds against several cancer and non-cancerous cell lines (Table 1), the concentrations of applied compounds were adjusted. IC10 values was considered as the concentrations, which should not decrease the cell viability under 90%. After the addition of compounds, Adriamycin (concentration range 0.1–20 µM) and paclitaxel (concentration range 0.1–10 µM) were added to HOC/ADR and MCF-7/PAX, respectively. The sensitization potential of the compounds was determined as the ratio of the IC50 of cytostatic agent (Adriamycin/paclitaxel) to the IC50 of cytostatic agent affected by the compound in concentration corresponding to the IC10 value. Fold change greater than 1 indicated synergic effect of cytostatic agent and the tested compound.
After that, the plates were washed 1× with PBS and fresh DMEM medium supplemented with tested compounds at final concentration corresponding their IC10 value was added, except for positive control wells. Subsequently, Adriamycin (concentration range 0.1–20 µM) or paclitaxel (concentration range 0.1–10 µM) was added to the appropriate cell line for 72 h. After incubation, the cells were washed 1× with PBS and the resazurin solution (0.03 mg/mL) was added to evaluate the cell viability as described above. IC50 values of cytostatics were calculated for both the control and compounds; a fold change was counted up. When this fold change is higher than 1 indicates a synergism between the tested cytostatic agent and the compound, while a fold change lower than 1 means an antagonism. Fold change=IC50value of cytostatic treated cells only/IC50value of cytostatic treated cells in addition of the compound

HOC spheroids = assay: 3D spheroid formation; format: cell-based; conditions: Homo sapiens, 24 h, read-out: inhibition of HOC spheroid growth
Description: as §1, with “According to this fact, the easier penetration and action of compounds into spheroids of ovarian cancer cells is expected. Upon selenoesters’ addition, the images of spheroids were taken regularly to determine their areas relative to the control spheroids in medium containing the solvent (1% V/V DMSO).” left out
Human ovarian and breast cancer cells (parental and resistant) were seeded into U bottom 96-well plates (VWR, Radnor, Pennsylvania, United States) coated with 0.8% SeaKem LE Agarose at a cell density 0.5 × 10^5 cells/mL (HOC, HOC/ADR) and 1 × 10^5 cell/mL (MCF-7, MCF-7/PAX) in 100 µL of medium with appropriate cytostatic agent. […] Spheroids were recorded 0; 24; 48 and 72 h after exposure to tested compounds by using the light microscope Axio Vert. A1 (Zeiss, Jena, Germany) with photo documentation equipment, Axiocam ICC 1 and Axio Vision 4.8 software (Zeiss), and the spheroid areas were determined by using ImageJ (National Institute of Health, Bethesda, Maryland, United States). […]

MCF-7/PAX spheroids = assay: 3D spheroid formation; format: cell-based, human; conditions: 1 µM, first 24 h
Description: as §1, §2

| Compound | ROS(+) cells (HOC) | ROS(−) cells (HOC) | MCF-7 spheroid growth relative to control (MCF-7 spheroids) | decrease of HOC/ADR spheroid growth (HOC/ADR spheroids; first 24 h) | Fold change (HOC/ADR) | inhibition at 1 µM (HOC spheroids) | effect on MCF-7/PAX spheroid growth (in words) (MCF-7/PAX spheroids) | HOC/ADR spheroid area compared to the control (HOC/ADR spheroids) |
| --- | --- | --- | --- | --- | --- | --- | --- | --- |
| CC(=O)C[Se]C(=O)c1ccc(Br)cc1 [K3] | 29.1 ± 4.2 % | 70.8 ± 4.2 % | under 80% | 45% | (1.4 ± 0.1)× | – | – | – |
| CC(=O)C[Se]C(=O)c1ccccc1C(F)(F)F [K4] | 14.5 ± 1.5 % | 85.5 ± 1.6 % | – | – | (1.4 ± 0.1)× | – | – | – |
| CC(=O)C[Se]C(=O)c1ccc(C(C)(C)C)cc1 [K7] | 22.3 ± 0.4 % | 77.7 ± 0.4 % | – | – | – | > 40% | slowed down | 75% |

— article PMC9023544, “Ketone-selenoesters as potential anticancer and multidrug resistance modulation agents in 2D and 3D ovarian and breast cancer in vitro models” (Scientific Reports, 2022)
